Several values for one entry are separate records, joined by “and”; a condition that tells them apart may be missing. Identical values can stand only once.
Legend:
[1] = system: P. falciparum Dd2-B2 clone; test: microbe, parasite or virus in culture; assay type: cell-based, Plasmodium falciparum; conditions: Plasmodium falciparum, DD2
From the text: Wells were monitored daily by smear during the first 7 days to ensure parasite clearance, during which media was changed daily. […] Whole-genome sequencing analysis employed MiSeq data from libraries of 2 × 300 bp paired end reads.

[2] = system: protein translation in P. falciparum trophozoites (Cam3.II-rev); test: Protein translation assay (OPP incorporation); assay type: cell-based, Plasmodium falciparum; conditions: for Translation: 6 h exposure, individual experiments, 0 nM = 100
Method: O-propargyl-puromycin (OPP) (Abcam) was added to the culture and incubated for a further 2 h. Parasites were washed three times in 1 × PBS (Gibco™) and fixed with 4% formaldehyde (Polysciences) and 0.02% glutaraldehyde (Sigma) in 1 × PBS for 20 min at room temperature (RT). Cells were washed two times with buffer A (3% human serum in 1 × PBS). Pellets were permeabilized in buffer A containing 0.05% Triton® X-100 and washed two times with buffer A. Fixed-permeabilized cells were subjected to copper-catalyzed azide–alkyne cycloaddition (CuAAC) at 37 °C for 1 h in the presence of 0.1 mM CuSO4, 0.5 mM THPTA, 5 mM sodium ascorbate, and 0.1 μM Alexa Fluor 488 azide in buffer A. Pellets were washed four times in buffer A and resuspended in buffer A containing 25 μg/ml propidium iodide (Invitrogen™). Cells were interrogated by flow cytometry (FACS Canto II; BD Biosciences, San Jose, CA) using FITC and Cy™5.5 channels.

PfAsnRS = PfAsnRS (Plasmodium falciparum, UniProt O96198); test: biochemical
PfAsnRS, sequence (O96198 entry or part of it): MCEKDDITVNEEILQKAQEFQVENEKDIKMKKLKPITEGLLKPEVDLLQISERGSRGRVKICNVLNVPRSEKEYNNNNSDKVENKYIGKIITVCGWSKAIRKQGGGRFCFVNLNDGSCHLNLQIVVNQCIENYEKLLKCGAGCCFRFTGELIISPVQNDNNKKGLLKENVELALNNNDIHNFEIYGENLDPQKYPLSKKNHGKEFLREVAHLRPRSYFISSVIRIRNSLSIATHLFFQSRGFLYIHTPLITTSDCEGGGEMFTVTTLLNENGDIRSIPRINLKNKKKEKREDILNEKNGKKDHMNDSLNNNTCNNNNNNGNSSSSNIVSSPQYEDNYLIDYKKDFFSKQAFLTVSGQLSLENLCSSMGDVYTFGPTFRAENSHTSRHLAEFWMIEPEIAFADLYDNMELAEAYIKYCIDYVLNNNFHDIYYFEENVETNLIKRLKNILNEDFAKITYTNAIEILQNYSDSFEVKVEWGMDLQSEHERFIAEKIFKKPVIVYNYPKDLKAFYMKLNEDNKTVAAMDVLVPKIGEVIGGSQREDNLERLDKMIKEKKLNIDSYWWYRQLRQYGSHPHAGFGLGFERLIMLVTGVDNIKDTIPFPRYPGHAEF

HsAsnRS = molecular target: T1, HsAsnRS (Homo sapiens, UniProt O43776); test: LC-MS of Asn-OSM-S-106 adduct generated by recombinant HsAsnRS; assay type: biochemical
T1 construct: HsAsnRS (residues M1–P548) and CDHsAsnRS (residues A98–P548); His6 (N, cleaved yes); made in house; host or cells: E. coli BL21 (DE3), pET11a
T1 sequence (O43776 1-548): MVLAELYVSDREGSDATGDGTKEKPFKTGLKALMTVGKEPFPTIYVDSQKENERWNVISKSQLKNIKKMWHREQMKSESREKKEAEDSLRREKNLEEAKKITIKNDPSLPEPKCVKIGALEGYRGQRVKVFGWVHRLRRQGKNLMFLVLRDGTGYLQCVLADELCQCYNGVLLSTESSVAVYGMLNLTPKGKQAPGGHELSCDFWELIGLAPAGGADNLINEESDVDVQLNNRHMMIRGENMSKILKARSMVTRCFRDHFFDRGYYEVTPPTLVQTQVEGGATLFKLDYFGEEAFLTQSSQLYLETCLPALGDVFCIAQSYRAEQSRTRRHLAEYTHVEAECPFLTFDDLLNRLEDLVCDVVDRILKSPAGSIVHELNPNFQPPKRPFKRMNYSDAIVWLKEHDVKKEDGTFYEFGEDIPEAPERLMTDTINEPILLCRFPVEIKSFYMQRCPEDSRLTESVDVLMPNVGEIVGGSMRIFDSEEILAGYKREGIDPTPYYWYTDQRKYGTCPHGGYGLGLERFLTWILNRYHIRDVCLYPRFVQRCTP
Method: The reaction buffer consists of 100 mM HEPES pH 7.5 (KOH), 160 mM KCl, 3.5 mM MgCl2, 1 mM DTT. The mixture was incubated at 37 °C for 1 h. After that, an equal volume of 8 M urea was added to the mixture. Finally, trifluoroacetic acid was added to a final concentration of 1%. The sample was centrifuged at 15,000 × g for 10 min and the supernatant was used for LCMS analysis. […] Quantification of the conjugates was done using Skyline (version 21.1.0.278).
Samples were analyzed by reversed-phase ultra-high-performance liquid chromatography (UHPLC) coupled to tandem mass spectrometry (MS/MS) employing a Vanquish UHPLC linked to an Orbitrap Fusion Lumos mass spectrometer (Thermo Fisher Scientific, San Jose, CA, USA) operated in positive ion mode. Solvent A was 0.1% formic acid/10 mM ammonium acetate in water and solvent B was 0.1% formic acid/10 mM ammonium acetate in acetonitrile. […] Finally, the percentage of solvent B was decreased to 0% in 0.1 min and maintained for 3.9 min.
MS experiments were performed using a Heated Electrospray Ionization (HESI) source. The spray voltage, flow rate of sheath, auxiliary and sweep gases were 3.5 kV, 20, 6, and 1 ‘arbitrary’ unit(s), respectively. The ion transfer tube and vaporizer temperatures were maintained at 350 °C and 400 °C, respectively, and the S-Lens RF level was set at 50%. […]

Q: Which IC50 [1] does the source give for `Nc1ncnc2cc(-c3cccc(S(N)(=O)=O)c3)sc12` [OSM-S-106] here?
A: The IC50 was 88.9 nM.

Q: What about the IC90 [1] of the same compound?
A: The IC90 was 169 nM.

Q: What about the Translation ([2]; 78.1 nM) of the same compound?
A: The Translation was 88.2194 and 68.5604 and 78.7165.

Q: What about the Translation ([2]; 156.3 nM) of the same compound?
A: Its Translation is 70.9569 and 76.7178 and 73.7965.

Q: What about the Translation ([2]; 312.5 nM) of the same compound?
A: The Translation was 55.5714 and 55.4781 and 55.6229.

Q: And the Translation ([2]; 625 nM)?
A: Its Translation is 47.9476 and 51.4282 and 41.085.

Q: And the Translation ([2]; 1250 nM)?
A: Its Translation is 31.8914 and 46.8967 and 33.6793.

Q: And the Translation ([2]; 2500 nM)?
A: The Translation was 20.1284 and 25.4073 and 16.4444.

Q: What about the Translation ([2]; 5000 nM) of the same compound?
A: Its Translation is 10.3606 and 16.5158 and 20.3119.

Q: And the Translation ([2]; 10000 nM)?
A: The Translation was 7.683 and 13.3898 and 13.8481.

Q: What about the Translation ([2]; 20000 nM) of the same compound?
A: Its Translation is 7.414 and 4.917 and 2.903.

Q: What about the Translation ([2]; 40000 nM) of the same compound?
A: Its Translation is 7.804 and 8.474 and 8.853.

Q: And the IC50 ([2]; Plasmodium falciparum, read-out: IC50 (Translation))?
A: Its IC50 is 510 nM.

Q: What about the ATP consumption (PfAsnRS; 0.1 μM OSM-S-106, PfAsnRS + tRNA, 0 μM = 100, 0.1 µM) of the same compound?
A: The ATP consumption was 82.5658 and 96.0922.

Q: What about the ATP consumption (PfAsnRS; 0.1 μM OSM-S-106, PfAsnRS - tRNA, 0 μM = 100, 0.1 µM) of the same compound?
A: Its ATP consumption is 102.037 and 98.4072 and 106.756 and 97.2403 and 101.662.

Q: What about the ATP consumption (PfAsnRS; 0.1 μM OSM-S-106, PfAsnRS, normalised to 1 (Fig 3C), 0.1 µM) of the same compound?
A: The ATP consumption was 0.9643 and 0.9875.

Q: And the ATP consumption (PfAsnRS; 1 μM OSM-S-106, PfAsnRS + tRNA, 0 μM = 100, 1 µM)?
A: Its ATP consumption is 57.1862 and 87.1941.

Q: What about the ATP consumption (PfAsnRS; 1 μM OSM-S-106, PfAsnRS - tRNA, 0 μM = 100, 1 µM) of the same compound?
A: The ATP consumption was 113.687 and 120.029 and 93.4234 and 93.1495 and 103.899.

Q: What about the ATP consumption (PfAsnRS; 1 μM OSM-S-106, PfAsnRS, normalised to 1 (Fig 3C), 1 µM) of the same compound?
A: Its ATP consumption is 0.7028 and 0.7102.

Q: And the ATP consumption (PfAsnRS; 3 μM OSM-S-106, PfAsnRS, normalised to 1 (Fig 3C), 3 µM)?
A: The ATP consumption was 0.5774 and 0.6156.

Q: What about the ATP consumption (PfAsnRS; 5 μM OSM-S-106, PfAsnRS + tRNA, 0 μM = 100, 5 µM) of the same compound?
A: Its ATP consumption is 38.7619 and 47.6862.

Q: What about the ATP consumption (PfAsnRS; 5 μM OSM-S-106, PfAsnRS - tRNA, 0 μM = 100, 5 µM) of the same compound?
A: The ATP consumption was 106.249 and 114.714 and 99.7656 and 89.6731 and 97.6484.

Q: And the ATP consumption (PfAsnRS; 10 μM OSM-S-106, PfAsnRS + tRNA, 0 μM = 100, 10 µM)?
A: Its ATP consumption is 33.3781 and 42.1739.

Q: And the ATP consumption (PfAsnRS; 10 μM OSM-S-106, PfAsnRS - tRNA, 0 μM = 100, 10 µM)?
A: Its ATP consumption is 118.679 and 119.307 and 117.388 and 114.394 and 95.1041 and 101.36.

Q: And the ATP consumption (PfAsnRS; 10 μM OSM-S-106, PfAsnRS, normalised to 1 (Fig 3C), 10 µM)?
A: Its ATP consumption is 0.4326 and 0.4705.

Q: What about the ATP consumption (PfAsnRS; 25 μM OSM-S-106, PfAsnRS + tRNA, 0 μM = 100, 25 µM) of the same compound?
A: The ATP consumption was 31.8347 and 29.629.

Q: And the ATP consumption (PfAsnRS; 25 μM OSM-S-106, PfAsnRS - tRNA, 0 μM = 100, 25 µM)?
A: The ATP consumption was 125.392 and 106.541 and 117.104 and 104.95 and 102.467 and 90.9619.

Q: What about the ATP consumption (PfAsnRS; 30 μM OSM-S-106, PfAsnRS, normalised to 1 (Fig 3C), 30 µM) of the same compound?
A: The ATP consumption was 0.3585 and 0.3795.

Q: And the ATP consumption (PfAsnRS; 100 μM OSM-S-106, PfAsnRS + tRNA, 0 μM = 100, 100 µM)?
A: Its ATP consumption is 21.4279 and 12.1476.

Q: And the ATP consumption (PfAsnRS; 100 μM OSM-S-106, PfAsnRS - tRNA, 0 μM = 100, 100 µM)?
A: Its ATP consumption is 100.893 and 101.422 and 99.2831 and 94.8016 and 84.8517.

Q: What about the ATP consumption (PfAsnRS; 100 μM OSM-S-106, PfAsnRS, normalised to 1 (Fig 3C), 100 µM) of the same compound?
A: The ATP consumption was 0.3092 and 0.3431.

Q: What about the ATP consumption (PfAsnRS; 200 μM OSM-S-106, PfAsnRS - tRNA, 0 μM = 100, 200 µM) of the same compound?
A: The ATP consumption was 112.741 and 109.993 and 91.5345 and 106.529 and 72.1689.

Q: And the ATP consumption (PfAsnRS; 200 μM OSM-S-106, PfAsnRS, normalised to 1 (Fig 3C), 200 µM)?
A: The ATP consumption was 0.2731 and 0.3306.

Q: And the ATP consumption (PfAsnRS; 500 μM OSM-S-106, PfAsnRS - tRNA, 0 μM = 100, 500 µM)?
A: The ATP consumption was 107.256 and 120.979 and 131.723 and 125.52 and 90.3898 and 80.1015.

Q: What about the IC50 (PfAsnRS; IC50, ATP consumption, 0.05 μM PfAsnRS, E. coli tRNA present, 37 °C, 1 h (Fig. 3C, D)) of the same compound?
A: Its IC50 is 6200 nM.

Q: And the IC50 (PfAsnRS; IC50, ATP consumption, minus E. coli tRNA, 0.5 μM enzyme, […] (Fig. 3B))?
A: Its IC50 is over 500000 nM.

Q: What about the IC50 (PfAsnRS; IC50, ATP consumption, plus E. coli tRNA, 0.5 μM enzyme, 37 °C, […] (Fig. 3B)) of the same compound?
A: The IC50 was 7300 nM.

Q: What about the IC50 (PfAsnRS; concentration needed to induce 50% inhibition of ATP consumption) of the same compound?
A: Its IC50 is about 1000 nM.

Q: What about the “MS peak area (Asn-OSM-S-106 adduct)” value (HsAsnRS; 1 μM HsAsnRS, 10 μM OSM-S-106, 1 h, 37 °C, individual experiments) of the same compound?
A: The value was 3564405 and 3396334 and 2555457 and 1397007.

Q: What about the “Asn-OSM-S-106 signal intensity with HsAsnRS, lower than with PfAsnRS” value (HsAsnRS; 10 μM OSM-S-106, ATP, Asn, E. coli tRNA) of the same compound?
A: Its value is 18 fold.

— paper PMC10831071, “Reaction hijacking inhibition of Plasmodium falciparum asparagine tRNA synthetase” (Nature Communications, 2024)
